Source: patent publication US5610171A, “Inhibition of metastasis in patients having cancer with pyridyloxazole-2-ones” (Merrell Pharmaceuticals Inc., priority 1995, dated 1997)
Read-outs that look alike come from different tables or passages of the source. Values belong to the molecule of their own block, whether it stands above or below them.

Tests used:
[1] = test system: cytosolic PKC; experiment: Inhibition of B16F1 cytosolic PKC activity; assay type: biochemical, murine; details: B16F1 cytosol fraction
Experimental: (§1) Protein Kinase C Preparation
(§2) Cytostolic and membrane-associated PKC was prepared as described in Thomas, T. P., Gopalakrishna, R. and Anderson, W. B. Hormone- and tumor promoter-induced activation of membrane association of protein kinase C in intact cells, Methodsin Enzymology, 141: 399-411, 1987. Sub-confluent B16F1 cultures (4×10^7 cells total) were washed twice with phosphate buffered saline (PBS), pH 7.2 and then twice with buffer A (20 mM Tris, pH 7.5, 2 mM EDTA, 0.5 mM EGTA, […], 2 mM phenylmethylsulfonyl fluoride (PMSF), and 2 μg/ml leupeptin). Cells were scraped from the plates in buffer A, homogenized (40 strokes) and sedimented by centrifugation for 1 hour at 100,000 g. The cytosol was stored on ice while the particulate fraction was washed with buffer B (20 mM Tris, pH 7.2, 2 mM EDTA, 0.5 mM EGTA, and 2 mM (PMSF). The membranes were resuspended with buffer B and homogenized with 10 strokes. Nonidet P-40 (1% final concentration) was added and the mixture was incubated for 30 minutes at 4° C. in a rotating mixer. Nonsolubilized material was removed by centrifugation for 10 minutes at 1400 g. Cytostolic and membrane-bound PKC was partially purified by chromatography over 1 ml columns of DE-52 (Whatman) equilibrated with buffer B. The enzyme was applied to the column and washed with 2×3 ml buffer B. Elution of PKC was then effected by the addition of 2 ml buffer B containing 100 mM NaCl.
(§3) PKC was quantitated as described in Thomas et al., ibid. The assay contained 20 mM Tris (pH 7.5), 0.75 mM CaCl, 10 mM magnesium acetate, […] histone III-S, 0.25 μg/ml leupeptin, 100 μM [gamma-^32 p]-ATP (120 cpm/pmol), 0.96 μg/ml phosphatidylserine, and 0.0064 μg/ml 1,2-diolein in a total assay volume of 250 μl. Blanks contained no calcium or phospholipids. Incubation was for 5 minutes at 30° C. at which point the reaction was terminated by the addition of 1 ml 25% trichloroacetic acid (TCA). Samples were applied to Whatman GF/B filters, the tube rinsed twice with 5% TCA and the filter then washed 5 times with 5% TCA.
^a Subconfluent B16F1 cells were harvested and cytosol and membrane
fractions prepared as described in Materials and Methods. PKC activity wa
then measured in the presence of the drugs listed.

[2] = test system: membrane-associated PKC; experiment: Inhibition of B16F1 membrane-associated PKC activity; assay type: biochemical, murine; details: B16F1 membrane fraction
Experimental: as §1, §2, §3

[3] = test system: B16F1 cells; experiment: Experimental lung metastasis assay (B16F1 cells treated in culture, then injected intravenously into C57BL/6 mice); assay type: in vivo, murine (C57BL/6 mice); details: Mus musculus, B16-F1, iv, read-out: B16 Metastasis IC50
Experimental: Experimental Metastasis Assay
Sub-confluent B16F1 cells were harvested by washing with HBSS followed by trypsinization for 1 minute. The cells were sedimented by centrifugation (250 g, 5 minutes) and washed twice with HBSS. Viable cells were counted after dilution with trypan blue. A single-cell suspension of 10^5 cells in 0.2 ml HBSS was injected intravenously into 16-18 C57BL/6 mice via the tail vein. Three weeks later, the number of metastatic foci in the lung were counted.

[4] = test system: SP1 mouse mammary adenocarcinoma cells; details: cells normally do not metastasize; cited from earlier work
[5] = test system: fibrinogen; experiment: Adhesion of B16F1 cells to fibrinogen; assay type: cell-based; details: 24 hours
Experimental: (§4) Adhesion of B16F1 Cells to Basement Membrane Proteins
(§5) Adhesion proteins (2 μg/well) were coated onto Immulon I Removawells from Dynatech and incubated for 1 hour at 37° C. The wells were then blocked for 1 hour with 400 μl PBS, pH 7.2 containing 1% bovine serum albumin (BSA) at 37° C. Prior to addition of the cell suspension, the blocking solution was aspirated.
(§6) Sub-confluent cells were washed twice with HBSS and removed form flasks by incubation for 10 minutes at 37° C. with PBS (pH 7.2), 2 mM EDTA, and 1% BSA. The cells were washed twice with MEM containing 20 mM HEPES and 0.1% BSA and resuspended in the same medium to give a cell density of […].
(§7) Cells were added to wells in 50 μl (5×10^4 cells) and incubated at 37° C. The wells were aspirated and washed three times with 400 μl PBS (pH 7.2) containing 0.1% BSA. Wells were detached and counted in 5 ml Beckman Ready Protein. Blanks were not coated with protein but were blocked with BSA as described above.

[6] = test system: collagen IV; experiment: Adhesion of B16F1 cells to collagen IV; assay type: cell-based; details: 24 hours
Experimental: as §4, §5, §6, §7

[7] = test system: B16F1 cells / human umbilical vein endothelial cells (HUVEC); experiment: Adhesion of B16F1 melanoma cells to endothelial cells (HUVEC); assay type: cell-based, murine B16F1 cells; human HUVEC
Experimental: Adhesion of Tumor Cells to Endothelial Cells
Round 15 mm Thermanox tissue culture cover slips from Lux were placed in Corning 12-well, 22 mm diameter tissue culture clusters. HUVEC (2×10^6) were added to each well and grown to confluency. Sub-confluent B16F1 cells were labeled with 1 μCi/ml [^3 H]-thymidine (New England Nuclear, 78.5 Ci/mmol) for 24 hours at 37° C.
In preparation for the adhesion assay, the tissue culture wells containing either HUVEC or no cells were blocked with MEM containing 20 mM HEPES and 1% BSA for 1 hour at 37° C. B16F1 cells were removed from the flasks as described above for adhesion to basement membrane proteins and diluted to a density of 2×10^5 viable cells/ml in MEM (viability determined by trypan blue exclusion).
Blocking solution was aspirated from the wells and 1 ml of cells were added per well and incubated at 37° C. Nonadherent cells were washed from coverslips as described in Wright, P. S., Cross-Doersen, D., McCann, P. P. and Bitonti, A. J., Plasmodium falciparum: a rapid assay for cytoadherence of [^3 H]-hypoxanthine-labeled infected erythrocytes to human melanoma cells, Exp. Parasitol., 71: 346-349, 1990. Coverslips were retrieved from the well with forceps and dipped 10 times into a beaker of 100 ml MEM. Coverslips were placed into scintillation vials and counted in 10 ml Beckman Ready Protein.
B16F1 cells were treated with 4-propyl-5(4-pyridinyl)-
(3H)-oxazolone for 24 hours at 37° C. Cells were then
harvested and added to wells containing confluent HUVEC
cells and incubated for the time indicated at 37° C. Details
are given in Materials and Methods.

[8] = test system: B16 murine melanoma cells; details: cells treated in vitro, intravenous injection into mice; cited from earlier work
[9] = test system: Lewis lung carcinoma cells; details: cited from earlier work
[10] = cells exposed to drugs for 24 hours, nodules counted three weeks later

- IC50 [1]: 500 µM
- IC50 [2]: 250 µM
- IC50 [3, 10]: 36 µM
SMILES: Cc1[nH]c(=O)oc1-c1ccncc1 [Compound 2, 4methyl-5-(4-pyridinyl)-2(3H)-oxazolone]

- IC50 [1]: 47 µM
- IC50 [2]: 15 µM
- IC50 [3, 10]: 68 µM
SMILES: CCc1[nH]c(=O)oc1-c1ccnc2ccccc12 [Compound 3, 4ethyl-5-(4-quinolinyl)-2(3H)-oxazolone]

- IC50 [1]: 62 µM
- IC50 [2]: 94 µM
SMILES: CCCc1[nH]c(=O)oc1-c1ccnc2ccccc12 [Compound 4, 4propyl-5-(4-quinolinyl)-2(3H)-oxazolone]

SMILES: CNc1ccc2oc(C[C@H]3O[C@@]4(CC[C@H]3C)O[C@H]([C@H](C)C(=O)c3ccc[nH]3)[C@H](C)C[C@H]4C)nc2c1C(=O)O [Compound A23187]
- metastasis from the primary tumor [4]: resulted in metastasis from the primary tumor

SMILES: CC1CNCCN1S(=O)(=O)c1cccc2cnccc12 (stereo not shown) [Compound H-7, reference compound]
- IC50 [1]: 180 µM
- IC50 [2]: 71 µM
- adhesion to fibrinogen [5]: Neither H-7 nor staurosporine inhibited adherence
- IC50 [3]: 12.5 µM
- adhesion to collagen IV [6]: Neither H-7 nor staurosporine inhibited adherence
- adherence to HUVEC [7]: Neither H-7 nor staurosporine inhibited adherence

SMILES: CCCCCCCCCCCCCC(=O)O[C@@H]1[C@@H](C)[C@@]2(O)[C@@H](C=C(CO)C[C@]3(O)C(=O)C(C)=C[C@@H]23)[C@@H]2C(C)(C)[C@]12OC(C)=O [PMA, phorbol-12-myristate-13-acetate]
- number of metastatic foci in lungs [8]: increased numbers of metastatic foci in lungs
- metastasis from the primary tumor [4]: resulted in metastasis from the primary tumor
- adhesion to endothelial cells [9]: enhancement of adhesion to endothelial cells

SMILES: CN[C@@H]1C[C@H]2O[C@@](C)([C@@H]1OC)n1c3ccccc3c3c4c(c5c6ccccc6n2c5c31)C(=O)NC4 [Staurosporine, reference compound]
- IC50 [1]: 0.019 µM
- adhesion to fibrinogen [5]: Neither H-7 nor staurosporine inhibited adherence
- adhesion to collagen IV [6]: Neither H-7 nor staurosporine inhibited adherence
- adherence to HUVEC [7]: Neither H-7 nor staurosporine inhibited adherence
